Experiment [1] deals with Mycobacterium tuberculosis. Briefly: Antituberculosis activity against Mycobacterium tuberculosis H37Rv F420 mutant after 2 weeks. Type of experiment: functional.
For experiment [2], the system named is Mycobacterium tuberculosis. The experiment in a line: Antituberculosis activity against Mycobacterium tuberculosis H37Rv Ddn mutant after 2 weeks. Type of experiment: functional.

In brackets after ≈: the same amount, converted by molar mass. Bounds are passed on as bounds.

Consider `Nc1c([N+](=O)[O-])nc2n1C[C@H](OCc1ccc(OC(F)(F)F)cc1)CO2`, for which the MIC in experiment [1] and in experiment [2] was above 100 µM throughout.
Take `O=[N+]([O-])c1nc2n(c1Br)C[C@H](OCc1ccc(OC(F)(F)F)cc1)CO2`: the MIC in experiment [1] and in experiment [2] was 25 µM (≈ 11 µg/mL) each time.
Turning to `N#Cc1c([N+](=O)[O-])nc2n1C[C@H](OCc1ccc(OC(F)(F)F)cc1)CO2`, the MIC in experiment [1] and in experiment [2] was above 100 µM in each case.
For the compound `O=[N+]([O-])c1nc2n(c1Cl)C[C@H](OCc1ccc(OC(F)(F)F)cc1)CO2`, the MIC (usually the least concentration at which growth counts as inhibited) in experiment [1] was found to be 25 µM (≈ 9.84 µg/mL); in experiment [2] it was 50 µM (≈ 19.7 µg/mL).
Taken in the same sequence, the figures for `O=[N+]([O-])c1cn2c(n1)OC[C@@H](OCc1ccc(OC(F)(F)F)cc1)C2` [PRETOMANID] were above 100 µM and above 100 µM.

These data come from ChEMBL document CHEMBL1641439, “The effect of 5-substitution on the electrochemical behavior and antitubercular activity of PA-824” (2011).
